This assay deals with T1, human type 1 glycine transporter (GlyT1) (Homo sapiens, UniProt P48067).
T1 construct: T98G cells (glioma cells) expressing human type 1 glycine transporter (GlyT1) were used
T1 sequence (P48067 1-706): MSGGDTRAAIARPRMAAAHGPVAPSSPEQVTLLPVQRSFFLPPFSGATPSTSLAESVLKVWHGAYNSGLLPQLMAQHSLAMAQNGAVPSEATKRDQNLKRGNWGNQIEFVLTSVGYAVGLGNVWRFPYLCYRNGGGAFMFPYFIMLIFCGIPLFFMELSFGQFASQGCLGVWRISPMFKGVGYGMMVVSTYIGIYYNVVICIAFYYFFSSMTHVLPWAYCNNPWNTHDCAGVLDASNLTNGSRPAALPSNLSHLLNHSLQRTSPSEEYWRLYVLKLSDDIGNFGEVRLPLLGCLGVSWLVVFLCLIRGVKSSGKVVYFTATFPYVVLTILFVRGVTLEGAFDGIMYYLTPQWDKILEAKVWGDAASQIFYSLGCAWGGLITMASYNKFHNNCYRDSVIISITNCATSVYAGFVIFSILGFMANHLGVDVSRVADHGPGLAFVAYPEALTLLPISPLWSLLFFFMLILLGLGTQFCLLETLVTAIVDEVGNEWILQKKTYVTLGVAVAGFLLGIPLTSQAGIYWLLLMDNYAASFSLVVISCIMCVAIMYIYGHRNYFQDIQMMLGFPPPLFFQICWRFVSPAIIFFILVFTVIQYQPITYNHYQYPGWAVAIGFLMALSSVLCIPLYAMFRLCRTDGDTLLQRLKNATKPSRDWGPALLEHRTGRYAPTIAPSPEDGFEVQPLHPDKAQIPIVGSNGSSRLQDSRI
Briefly: Glycine uptake inhibition experiment ([3H]glycine uptake). Format: cell-based. The settings on record: GlyT1. The procedure, abridged: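 T98G glioma cells expressing human GlyT1 were pretreated 10 min with compound in HEPES buffer pH 7.4 (0.2% BSA), then incubated with compound plus 250 nM final [3H]glycine for 15 min at room temperature. Intracellular radioactivity was counted after NaOH lysis; 10 μM ALX5407 defined non-specific uptake. IC50 came from 10^−9–10^−5 M curves.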

25 compounds from patent publication US20160130278A1 (TAISHO PHARMACEUTICAL CO., LTD, priority 2013, published 2016) can be followed below.

The IC50 is the point on the concentration scale where inhibition reaches its midpoint. The low end stands for greater potency, the high end for weaker potency. `CCn1cc(-c2cccc(C(NC(=O)c3nccc4ccccc34)C3(O)CCCC3)c2)cn1` (stereo not shown) [Compound 22, N-{[3-(1-ethyl-1H-pyrazol-4-yl)phenyl](1-hydroxycyclopentyl)methyl}isoquinoline-1-carboxamide] had a 50% inhibitory concentration (IC50) of 110 nM.

Compound `N#Cc1cccc(C(NC(=O)c2nccc(C(F)(F)F)c2Cl)C2(O)CCCC2)c1` (stereo not shown) [Compound 23, 3-chloro-N-[(3-cyanophenyl)(1-hydroxycyclopentyl)methyl]-4-(trifluoromethyl)pyridine-2-carboxamide] had an IC50 of 300 nM.

`O=C(NC(c1cccc(-c2cccnc2)c1)C1(O)CCCCC1)c1nccc(C(F)(F)F)c1Cl` (stereo not shown) [Compound 26, 3-chloro-N-{(hydroxycyclohexyl)[3-(pyridin-3-yl)phenyl]methyl}-4-(trifluoromethyl)pyridine-2-carboxamide] yielded an IC50 of 80 nM. Against the preceding compound, the IC50 is about 3.8-fold lower.

As for `COc1cc(C(F)(F)F)cc(C(F)(F)F)c1C(=O)NC(c1ccccc1)C1(O)CCCC1` (stereo not shown) [Compound 29, N-[(1-hydroxycyclopentyl)(phenyl)methyl]-2-methoxy-4,6-bis(trifluoromethyl)benzamide], it took 2000 nM to reach half-maximal inhibition (IC50).

Turning to `Cc1cccc(C)c1C(=O)NC(c1ccccc1)C1(O)CCCC1` (stereo not shown) [Compound 30, N-[(1-hydroxycyclopentyl)(phenyl)methyl]-2,6-dimethylbenzamide], the IC50 was 6500 nM.

As for `O=C(NC(c1cccc(Br)c1)C1(O)CCCC1)c1nccc(C(F)(F)F)c1Cl` (stereo not shown) [Compound 31, N-[(3-bromophenyl)(1-hydroxycyclopentyl)metyl]-3-chloro-4-(trifluoromethyl)pyridine-2-carboxamide], the IC50 is 170 nM.

With `O=C(NC(c1ccccc1Br)C1(O)CCCC1)c1nccc(C(F)(F)F)c1Cl` (stereo not shown) [Compound 32, N-[(2-bromophenyl)(1-hydroxycyclopentyl)methyl]-3-chloro-4-(trifluoromethyl)pyridine-2-carboxamide], the IC50 was 60 nM.

`O=C(N[C@@H](c1cccc(Br)c1)C1(O)CCCC1)c1nccc(C(F)(F)F)c1Cl` [Compound 33, N-[(S)-(3-bromophenyl)(1-hydroxycyclopentyl)methyl]-3-chloro-4-(trifluoromethyl)pyridine-2-carboxamide] showed an IC50 of 82 nM. This IC50 and that of the compound before are within 1.5-fold of each other.

The compound `O=C(N[C@H](c1cccc(Br)c1)C1(O)CCCC1)c1nccc(C(F)(F)F)c1Cl` [Compound 34, N-[(R)-(3-bromophenyl)(1-hydroxycyclopentyl)methyl]-3-chloro-4-(trifluoromethyl)pyridine-2-carboxamide] displayed an IC50 of 1000 nM.

In turn, `O=C(N[C@@H](c1cccc(-c2ccccn2)c1)C1(O)CCCC1)c1nccc(C(F)(F)F)c1Cl` [Compound 35, 3-chloro-N-{(S)-(1-hydroxycyclopentyl)[3-(pyridin-2-yl)phenyl]methyl}-4-(trifluoromethyl)pyridine-2-carboxamide] gave an IC50 of 74 nM. This IC50 is about 14-fold lower than that of the compound before.

As for `O=C(N[C@@H](c1cccc(-c2ncccn2)c1)C1(O)CCCC1)c1nccc(C(F)(F)F)c1Cl` [Compound 36, 3-chloro-N-{(S)-(1-hydroxycyclopentyl)[3-(pyrimidin-2-yl)phenyl]methyl}-4-(trifluoromethyl)pyridine-2-carboxamide], the IC50 was determined as 130 nM.

As for `N#Cc1cccc([C@H](NC(=O)c2nccc(C(F)(F)F)c2Cl)C2(O)CCCC2)c1` [Compound 37, 3-chloro-N-[(S)-(3-cyanophenyl)(1-hydroxycyclopentyl)methyl]-4-(trifluoromethyl)pyridine-2-carboxamide], the IC50 turned out to be 260 nM.

`O=C(NC(c1cccc(Br)c1)C1(O)CCCCC1)c1nccc(C(F)(F)F)c1Cl` (stereo not shown) [Compound 38, N-[(3-bromophenyl)(1-hydroxycyclohexyl)methyl]-3-chloro-4-(trifluoromethyl)pyridine-2-carboxamide]: the IC50 is 60 nM.

As to `O=C(NC(c1ccc(F)cc1)C1(O)CCCC1)c1nccc(C(F)(F)F)c1Cl` (stereo not shown) [Compound 39, 3-chloro-N-[(4-fluorophenyl)(1-hydroxycyclopentyl)methyl]-4-(trifluoromethyl)pyridine-2-carboxamide], the midpoint of inhibition, the IC50, lay at 1000 nM.

As for `O=C(NC(c1cccc(F)c1)C1(O)CCCC1)c1nccc(C(F)(F)F)c1Cl` (stereo not shown) [Compound 40, 3-chloro-N-[(3-fluorophenyl)(1-hydroxycyclopentyl)methyl]-4-(trifluoromethyl)pyridine-2-carboxamide], the IC50 is 110 nM.

As to `O=C(NC(c1ccccc1F)C1(O)CCCC1)c1nccc(C(F)(F)F)c1Cl` (stereo not shown) [Compound 41, 3-chloro-N-[(2-fluorophenyl)(1-hydroxycyclopentyl)methyl]-4-(trifluoromethyl)pyridine-2-carboxamide], 180 nM corresponded to half-maximal inhibition (IC50). This IC50 is about 1.6-fold higher than that of the compound before.

As to `O=C(NC(c1ccccc1Cl)C1(O)CCCC1)c1nccc(C(F)(F)F)c1Cl` (stereo not shown) [Compound 44, 3-chloro-N-[(2-chlorophenyl)(1-hydroxycyclopentyl)methyl]-4-(trifluoromethyl)pyridine-2-carboxamide], the IC50 is 66 nM.

`O=C(NC(c1cccc(Cl)c1)C1(O)CCCC1)c1nccc(C(F)(F)F)c1Cl` (stereo not shown) [Compound 45, 3-chloro-N-[(3-chlorophenyl)(1-hydroxycyclopentyl)methyl]-4-(trifluoromethyl)pyridine-2-carboxamide] gave an IC50 of 90 nM.

`O=C(NC(c1ccc(Cl)cc1)C1(O)CCCC1)c1nccc(C(F)(F)F)c1Cl` (stereo not shown) [Compound 46, 3-chloro-N-[(4-chlorophenyl)(1-hydroxycyclopentyl)methyl]-4-(trifluoromethyl)pyridine-2-carboxamide] returned an IC50 of 1700 nM.

The compound `Cc1ccccc1C(NC(=O)c1nccc(C(F)(F)F)c1Cl)C1(O)CCCC1` (stereo not shown) [Compound 47, 3-chloro-N-[(1-hydroxycyclopentyl)(2-methylphenyl)methyl]-4-(trifluoromethyl)pyridine-2-carboxamide] yielded an IC50 of 280 nM.

Consider `Cc1cccc(C(NC(=O)c2nccc(C(F)(F)F)c2Cl)C2(O)CCCC2)c1` (stereo not shown) [Compound 48, 3-chloro-N-[(1-hydroxycyclopentyl)(3-methylphenyl)methyl]-4-(trifluoromethyl)pyridine-2-carboxamide], for which the IC50 was determined as 670 nM.

In the case of `Cc1ccc(C(NC(=O)c2nccc(C(F)(F)F)c2Cl)C2(O)CCCC2)cc1` (stereo not shown) [Compound 49, 3-chloro-N-[(1-hydroxycyclopentyl)(4-methylphenyl)methyl]-4-(trifluoromethyl)pyridine-2-carboxamide], the IC50 turned out to be 3800 nM.

In the case of `COc1ccccc1C(NC(=O)c1nccc(C(F)(F)F)c1Cl)C1(O)CCCC1` (stereo not shown) [Compound 50, 3-chloro-N-[(1-hydroxycyclopentyl)(2-methoxyphenyl)methyl]-4-(trifluoromethyl)pyridine-2-carboxamide], the IC50 stood at 540 nM.

Compound `COc1cccc(C(NC(=O)c2nccc(C(F)(F)F)c2Cl)C2(O)CCCC2)c1` (stereo not shown) [Compound 51, 3-chloro-N-[(1-hydroxycyclopentyl)(3-methoxyphenyl)methyl]-4-(trifluoromethyl)pyridine-2-carboxamide] yielded an IC50 of 370 nM.

As to `O=C(NC(c1cccc(F)c1)C1(O)CCC1)c1nccc(C(F)(F)F)c1Cl` (stereo not shown) [Compound 62, 3-chloro-N-[(3-fluorophenyl)(1-hydroxycyclobutyl)methyl]-4-(trifluoromethyl)pyridine-2-carboxamide], the IC50 was determined as 2100 nM.
